Results as given in ChEMBL document CHEMBL4334512, “Rationally Designed, Conformationally Constrained Inverse Agonists of RORγt-Identification of a Potent, Selective Series with Biologic-Like in Vivo Efficacy” (J Med Chem, 2019).

Key:
[1] = Half life in human liver microsomes; format: ADME, Microsome
[2] = target: T1, Nuclear receptor ROR-alpha (Homo sapiens, UniProt P35398); assay: Activity at RORalpha (unknown origin)
T1 sequence (P35398 whole entry): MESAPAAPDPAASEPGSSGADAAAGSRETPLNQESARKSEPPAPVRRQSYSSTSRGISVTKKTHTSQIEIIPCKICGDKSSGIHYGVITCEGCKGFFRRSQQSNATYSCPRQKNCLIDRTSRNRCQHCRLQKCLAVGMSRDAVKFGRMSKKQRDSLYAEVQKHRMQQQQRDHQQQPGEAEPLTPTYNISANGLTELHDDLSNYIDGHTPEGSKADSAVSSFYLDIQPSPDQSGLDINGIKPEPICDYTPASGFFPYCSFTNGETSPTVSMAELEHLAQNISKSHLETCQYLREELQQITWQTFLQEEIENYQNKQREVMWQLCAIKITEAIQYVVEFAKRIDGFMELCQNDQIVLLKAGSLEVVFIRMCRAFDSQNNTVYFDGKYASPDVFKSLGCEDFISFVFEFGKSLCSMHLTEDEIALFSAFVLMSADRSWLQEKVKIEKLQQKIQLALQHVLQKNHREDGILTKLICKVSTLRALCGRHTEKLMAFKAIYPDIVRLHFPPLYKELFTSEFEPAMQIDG

[3] = target: T2, Oxysterols receptor LXR-alpha (Homo sapiens, UniProt Q13133); assay: Activity at LXRalpha (unknown origin)
T2 sequence (Q13133 whole entry): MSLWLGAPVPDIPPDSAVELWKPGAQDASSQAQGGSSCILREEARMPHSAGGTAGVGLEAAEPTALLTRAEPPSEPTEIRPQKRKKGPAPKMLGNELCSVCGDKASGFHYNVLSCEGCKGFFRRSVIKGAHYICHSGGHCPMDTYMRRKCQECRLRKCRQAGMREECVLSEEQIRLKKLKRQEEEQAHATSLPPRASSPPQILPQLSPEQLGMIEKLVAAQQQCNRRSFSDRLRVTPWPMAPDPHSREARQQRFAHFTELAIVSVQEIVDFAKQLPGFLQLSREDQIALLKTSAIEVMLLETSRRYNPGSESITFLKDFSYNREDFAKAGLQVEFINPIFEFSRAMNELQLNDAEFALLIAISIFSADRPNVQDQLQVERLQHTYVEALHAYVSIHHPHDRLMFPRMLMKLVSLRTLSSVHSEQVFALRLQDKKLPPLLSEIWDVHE

[4] = Cmax in Balb/c mouse at 10 mg/kg, po; format: ADME, organism-based; design: dose 10 mg/kg, route oral; conditions: in vivo
[5] = Drug level in Balb/c mouse at 10 mg/kg, po after 24 hrs; format: ADME, organism-based; conditions: in vivo, read-out: Drug uptake
[6] = target: T3, Nuclear receptor ROR-gamma (Mus musculus, UniProt P51450); assay: Inverse agonist activity at RORgammat in CD3/CD28/IL-1/IL-23-stimulated C57/B6 mouse whole blood assessed as reduction in IL17A production incubated for 1 hr before stimulation with CD3/CD28/IL-1/IL-23 for 24 hrs by AlphaLISA method; format: tissue-based
T3 sequence (P51450 whole entry): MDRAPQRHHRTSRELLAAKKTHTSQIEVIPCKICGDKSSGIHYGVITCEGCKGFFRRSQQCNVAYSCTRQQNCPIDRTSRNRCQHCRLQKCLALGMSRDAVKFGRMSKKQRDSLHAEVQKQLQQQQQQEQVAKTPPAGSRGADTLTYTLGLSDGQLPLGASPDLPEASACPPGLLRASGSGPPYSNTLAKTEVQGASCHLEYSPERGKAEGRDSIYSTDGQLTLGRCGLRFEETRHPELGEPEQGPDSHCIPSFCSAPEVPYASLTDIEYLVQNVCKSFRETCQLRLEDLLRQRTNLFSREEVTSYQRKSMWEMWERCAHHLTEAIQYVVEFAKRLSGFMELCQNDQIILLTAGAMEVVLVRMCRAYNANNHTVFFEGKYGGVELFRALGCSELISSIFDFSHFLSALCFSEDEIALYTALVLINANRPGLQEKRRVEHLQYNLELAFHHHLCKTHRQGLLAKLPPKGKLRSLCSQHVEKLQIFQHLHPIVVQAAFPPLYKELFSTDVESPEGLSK

Cytochrome P450 2C19 = Cytochrome P450 2C19 (Homo sapiens, UniProt P33261); assay: Inhibition of recombinant CYP2C19 (unknown origin); format: ADME
Cytochrome P450 2D6 = Cytochrome P450 2D6 (Homo sapiens, UniProt P10635); assay: Inhibition of recombinant CYP2D6 (unknown origin); format: ADME
Cytochrome P450 3A4 = Cytochrome P450 3A4 (Homo sapiens, UniProt P08684); assay: Inhibition of recombinant CYP3A4 (unknown origin) using BFC substrate; format: ADME
[7] = Unbound fraction in rat serum; format: ADME, cell-free
Mus musculus [8] = assay: Suppression of IL-22 RNA expression in skin region of mouse model of IL-23 induced acanthosis model of psoriasis at 3 to 30 mg/kg, po BID for 10 days measured every other day; format: functional
[9] = Cmax in rat at 4 mg/kg, po; format: ADME, organism-based; design: dose 4 mg/kg, route oral; conditions: in vivo
[10] = Total AUC in mouse at 4 mg/kg, po; format: ADME, organism-based; design: dose 4 mg/kg, route oral, time AUCmax; conditions: in vivo
[11] = Clearance in mouse at 2 mg/kg, iv; format: ADME, organism-based; conditions: in vivo
[12] = Volume of distribution at steady state in rat at 2 mg/kg, iv; format: ADME, organism-based; conditions: in vivo, read-out: Vdss
[13] = Volume of distribution at steady state in dog at 1 mg/kg, iv; format: ADME, organism-based, Canis lupus familiaris; conditions: in vivo, read-out: Vdss
[14] = Half life in rat at 2 mg/kg, iv; format: ADME, organism-based; conditions: in vivo
[15] = Oral bioavailability in rat at 4 mg/kg; format: ADME, organism-based; conditions: in vivo
[16] = Oral bioavailability in dog at 1 mg/kg; format: ADME, organism-based, Canis lupus familiaris; conditions: in vivo
Mus musculus [17] = assay: Suppression of ear thickness in mouse model of IL-23 induced acanthosis model of psoriasis at 3 mg/kg, po BID for 10 days measured every other day relative to control; format: functional; conditions: 240 h
Mus musculus [18] = assay: Suppression of ear thickness in mouse model of IL-23 induced acanthosis model of psoriasis at 3 mg/kg, po BID for 10 days measured every other day relative to anti-IL-23 positive control; format: functional
Mus musculus [19] = assay: Suppression of ear thickness in mouse model of IL-23 induced acanthosis model of psoriasis at 10 mg/kg, po BID for 10 days measured every other day relative to anti-IL-23 positive control; format: functional
Mus musculus [20] = assay: Suppression of IL-17F RNA expression in skin region of mouse model of IL-23 induced acanthosis model of psoriasis at 10 mg/kg, po BID for 10 days measured every other day relative to control; format: functional; conditions: 240 h
Mus musculus [21] = assay: Suppression of IL-22 RNA expression in skin region of mouse model of IL-23 induced acanthosis model of psoriasis at 10 mg/kg, po BID for 10 days measured every other day relative to control; format: functional; conditions: 240 h

Cytochrome P450 2C19, sequence (P33261 whole entry): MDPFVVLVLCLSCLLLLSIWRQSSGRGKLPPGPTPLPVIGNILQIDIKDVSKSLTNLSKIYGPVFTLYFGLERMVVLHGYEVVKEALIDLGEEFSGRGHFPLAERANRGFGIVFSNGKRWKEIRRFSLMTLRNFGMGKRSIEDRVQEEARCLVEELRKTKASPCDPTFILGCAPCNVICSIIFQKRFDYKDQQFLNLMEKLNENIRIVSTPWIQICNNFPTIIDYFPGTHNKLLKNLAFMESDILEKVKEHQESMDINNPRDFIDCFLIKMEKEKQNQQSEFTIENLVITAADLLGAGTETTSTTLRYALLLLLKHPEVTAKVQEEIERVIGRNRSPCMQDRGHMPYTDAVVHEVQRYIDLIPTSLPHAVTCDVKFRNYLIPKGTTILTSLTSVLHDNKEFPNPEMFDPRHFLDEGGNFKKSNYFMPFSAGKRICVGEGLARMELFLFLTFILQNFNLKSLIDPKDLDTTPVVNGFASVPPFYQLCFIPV
Cytochrome P450 3A4, sequence (P08684 whole entry): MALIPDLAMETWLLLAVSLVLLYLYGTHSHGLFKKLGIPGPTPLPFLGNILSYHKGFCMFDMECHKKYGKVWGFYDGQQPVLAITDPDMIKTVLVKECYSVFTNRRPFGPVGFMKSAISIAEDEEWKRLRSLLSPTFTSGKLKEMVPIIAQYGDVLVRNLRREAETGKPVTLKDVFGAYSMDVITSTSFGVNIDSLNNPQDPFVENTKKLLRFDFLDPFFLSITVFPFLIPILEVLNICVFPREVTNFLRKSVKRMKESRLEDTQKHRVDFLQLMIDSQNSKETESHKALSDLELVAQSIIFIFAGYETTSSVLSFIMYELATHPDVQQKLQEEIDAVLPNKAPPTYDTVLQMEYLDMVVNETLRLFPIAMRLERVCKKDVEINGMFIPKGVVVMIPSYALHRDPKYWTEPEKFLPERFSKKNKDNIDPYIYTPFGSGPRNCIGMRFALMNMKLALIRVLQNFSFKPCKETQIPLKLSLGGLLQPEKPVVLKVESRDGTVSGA
Cytochrome P450 2D6, sequence (P10635 whole entry): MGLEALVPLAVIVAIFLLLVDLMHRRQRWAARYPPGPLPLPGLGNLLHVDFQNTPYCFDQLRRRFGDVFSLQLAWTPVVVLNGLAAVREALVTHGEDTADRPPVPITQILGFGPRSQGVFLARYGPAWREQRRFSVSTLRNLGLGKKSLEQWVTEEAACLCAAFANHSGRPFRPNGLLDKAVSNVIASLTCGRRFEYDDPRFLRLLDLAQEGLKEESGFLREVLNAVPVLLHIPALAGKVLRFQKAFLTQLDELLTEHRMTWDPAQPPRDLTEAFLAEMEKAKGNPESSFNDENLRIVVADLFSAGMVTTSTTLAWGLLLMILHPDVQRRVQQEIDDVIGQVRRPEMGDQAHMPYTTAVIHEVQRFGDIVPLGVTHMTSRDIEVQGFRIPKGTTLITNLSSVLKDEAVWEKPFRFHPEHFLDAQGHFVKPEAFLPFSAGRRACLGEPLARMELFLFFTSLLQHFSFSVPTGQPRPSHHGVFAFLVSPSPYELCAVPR

In the case of O=C(N1CC[C@@]2(S(=O)(=O)c3ccc(F)cc3)c3ccc(C(F)(C(F)(F)F)C(F)(F)F)cc3CC[C@@H]12)C1(O)CCS(=O)(=O)CC1, the half-life [1] is reported as > 2 h, the IC50 [2] is reported as > 10 µM and the IC50 [3] is reported as > 10 µM. It also gave a Cmax [4] of 2900 nM, a concentration at 24 h [5] of 1100 nM and an EC50 [6] of 0.44 µM. For the same molecule, the IC50 (Cytochrome P450 2C19) was > 20 µM, the IC50 (Cytochrome P450 2D6) was > 20 µM and the IC50 (Cytochrome P450 3A4) was > 20 µM. For the same molecule, the fraction unbound [7] was 0.011, the Activity (Mus musculus [8]) was “Dose-dependent effect” and the ED50 (Mus musculus [8]; 240 h) was 3 mg/kg. It also gave a Cmax [9] of 1100 nM, an AUC [10] of 58.2 µM·h and a clearance [11] of 1.9 mL/min/kg. It also gave a Vd [12] of 2.9 L/kg, a Vd [13] of 2.6 L/kg and a half-life [14] of 7 h. For the same molecule, the bioavailability [15] was 50%, the bioavailability [16] was 100% and the inhibition in vivo at 3 mg/kg (Mus musculus [17]) was 28%. It also gave an Efficacy (Mus musculus [18]) of 48%, an Efficacy (Mus musculus [19]) of 88% and an inhibition in vivo at 10 mg/kg (Mus musculus [20]) of 69%. For the same molecule, the inhibition in vivo at 10 mg/kg (Mus musculus [21]) was 92%.
